Values of other authors in US12569487B2, “Treatment of hidradenitis with jak inhibitors” (PFIZER INC., priority 2019, dated 2026).
Read-outs that look alike come from different tables or passages of the source.

System: patients with moderate to severe HS
Conditions: for Clinical response rate (hidradenitis suppurativa clinical response, HiSCR): adalimumab weekly

Substance: adalimumab
- Clinical response rate (hidradenitis suppurativa clinical response, HiSCR) (PIONEER I, Week 12, placebo 26.0%, P=0.003, oral antibiotics stopped at least 28 days before baseline): 41.8%
- Clinical response rate (hidradenitis suppurativa clinical response, HiSCR) (PIONEER II, Week 12, placebo 27.6%, P<0.001, stable tetracycline-class antibiotics allowed): 58.9%
- Rank-ordered secondary outcomes (lesions, pain, modified Sartorius score) versus placebo (Week 12, in PIONEER II only): significantly greater improvement
- Patients with moderate to severe HS who did not respond to treatment (summary of the PIONEER trials): ~40%
